The results in this text go back to US20100267753A1, “METHODS OF TREATING DISORDERS ASSOCIATED WITH PROTEIN KINASE CK2 ACTIVITY” (priority 2009, published 2010).

One series has as its system HIV-1. In words: U1 latent infection assay, antiviral (reverse transcriptase). Format: cell-based. The conditions noted are these: U1 latent/induced. As for the experimental part:
Histocytic leukemia cell line U937, latently infected with HIV-1, are treated with TNFα to induce virus expression in the presence of test compound. Antiviral activity is determined as a reduction in reverse transcriptase after 72 hr incubation.
(§1) TI=TC/IC; also referred to as Therapeutic Index values (TI) or Antiviral Index (AI)
The histocytic leukemia cell line U937, latently infected with HIV-1, was treated with TNFα to induce virus expression in the presence of test compound. Antiviral activity was determined as a reduction in reverse transcriptase after 72 hr incubation. Temacrazine, an inhibitor of HIV transcription initiation, was used as the positive control for the assay.

Series [1] relates to U937, latently infected with HIV-1 (U1 cells). In words: U1 latent infection assay, host cell cytotoxicity. Format: cell-based. Conditions: U1 latent/induced, 72 hr; read-out: TC50 (the source's name).
The subject of series [2] is 92HT599 (CXCR4-tropic HIV-1 Subtype B virus). In words: PBMC assay, HIV-1 92HT599. Format: cell-based. Conditions: Virus 92HT599, PBMCs. As for the experimental part:
(§2) Acute infection of HIV-1 isolates (CXCR4-tropic HIV-1 Subtype B and CCR5-tropic HIV-1 Subtype) using fresh human PBMCs from multiple donors (PMA and IL-2 stimulated). Antiviral activity determined as a reduction in reverse transcriptase after 7-day incubation.
as §1
(§3) Antiviral activity was determined as a reduction in reverse transcriptase after 7-day incubation. AZT, a nucleoside analog reverse transcriptase inhibitor, was used as the positive control for the assay.
(§4) 92HT599 is a CXCR4-tropic HIV-1 Subtype B virus. 91US005 is CCR5-tropic HIV-1 Subtype B virus.

Series [3] has as its system 91US005 (CCR5-tropic HIV-1 Subtype B virus). In words: PBMC assay, HIV-1 91US005. The conditions noted are these: Virus 91US005, PBMCs. Format: cell-based. As for the experimental part: as §2, §1, §3, §4
Another series deals with fresh human PBMCs. Description: PBMC assay, host cell cytotoxicity. In kind it is cell-based. Conditions: for CC50: PBMCs, read-out: TC50 (the source's name).
The test system of series [4] is formalin-induced persistent pain. Description: Formalin-induced persistent pain model (flinching). In kind it is in vivo, ICR mice. Conditions: 3 mg/kg, subcutaneously injected, positive control. As for the experimental part:
See Hunskaar, et al., “The formalin test in mice: Dissociation between inflammatory and non-inflammatory pain,” Pain, vol. […] 89, 53-63 (2000). These tests were conducted with ICR mice, in accordance with guidelines established by the International Association for the Study of Pain. Compounds of the invention were used as solutions of about 3-20 mg/mL in aqueous solution at about pH 8. […] The test animals were monitored for at least 40 minutes, during which time the number of flinches occurring during each 5-minute period were observed and recorded. A cohort of 12 animals were used for each dose level of each compound tested.
The compounds were administered orally in a single dose, of 30, 100, and 200 mg/kg, one hour prior to injection of formalin Pain response was measured by flinching frequency.

Series [5] in a line: U1 latent infection assay, host cell cytotoxicity. In kind it is cell-based. The conditions noted are these: human, U1 latent/induced, read-out: TC50.
The test system of series [6] is CFA-induced thermal hyperalgesia. In words: CFA-induced thermal hyperalgesia model (Hargreaves). The conditions noted are these: single intraperitoneal dose 50 mg/kg; 1, 2, and 4 hours after administration. In kind it is in vivo, ICR mice. As to the method:
The observations of pain responses were done blindly.
[…] On day 4, test subjects received a single injection of CFA (20 microliters) subcutaneously in the plantar surface of the left rear paw. CFA was injected subcutaneously into the plantar surface of the left hind paw of each test subject, under isoflurane anesthesia. […] On day 5, thermal responses were measured prior to treatment with the compound and again 1, 2, and 4 hours after treatment with […]. Withdrawal latencies were measured in response to thermal stimulus by the Hargreaves method. Naproxen was used as a positive control.

Series [7] in a line: Pharmacokinetics in mouse (IV bolus or oral dose). In kind it is in vivo. Conditions: mice; for Cmax: read-out: Cmax-obs; for half-life: read-out: t1/2 (converted). As to the method:
The pharmacokinetics properties of drugs were investigated in three species, following an intravenous (IV) bolus or oral (PO) dose of Compound K at the dosages indicated in the chart. Blood samples were collected at predetermined times and the plasma separated. Plasma was separated from the blood samples collected at 5, 15 and 30 minutes and 1, 2, 4, 8 and 24 hours post-dose.
Drug levels were quantified by the LC/MS/MS method described below. Noncompartmental pharmacokinetic analysis was applied for intravenous administration. […] The terminal t1/2 and C0 were calculated using the last three and the first three data points, respectively
Bioanalysis was performed using a Quattro Micro LC/MS/MS instrument in the MRM detection mode, with an internal standard (1S). Briefly, 15 μL plasma samples were prepared for analysis using protein precipitation with 120 μL of acetonitrile. The supernatants were transferred into a 96 well plate and subjected to LC-MS/MS analysis using a Phenomenex Polar-RP HPLC column. The mobile phases were 10 mM NH4HCO3 in water (Solution-A) and 10 mM NH4HCO3 in methanol (Solution-B). The column was initially equilibrated with 25% Solution-B and followed with 100% Solution B over 5 minutes. […] Quantitation of the analytes was performed in the batch mode with two bracketing calibration curves according to the bioanalytical sample list.

Series [8] in a line: PBMC assay, host cell cytotoxicity. In kind it is cell-based, human. The conditions noted are these: human; PBMCs; read-out: TC50.
Series [9] deals with eight CCR5-tropic HIV-1 clinical isolates. In words: CCR5-tropic HIV-1 clinical isolates in fresh human PBMCs. Format: cell-based. Conditions: FIG. 5, fresh human PBMCs.
[10] abbreviates: TNFα, reverse transcriptase after 72 hr.
Setting [11] is: Human immunodeficiency virus 1, 72 h, 72 hr, positive control.
The mark [12] stands for this setting: Human immunodeficiency virus 1, PBMC, 168 h, 7-day incubation.
The mark [13] stands for this setting: Human immunodeficiency virus 1, PBMC.

pIC50: −log10 of the molar value. Where “and” joins values, the source holds several entries; their conditions need not be identical. Equal values may be shown once. Read-outs that look alike come from different tables or passages of the source.

Consider `O=C([O-])c1ccc2c(c1)nc(Nc1cccc(C(F)(F)F)c1)c1nc(NC3CC3)ncc12.[Na+]` [Compound 2 Na], for which the “TI (TC50/IC50)” value is >30.9 and >30.7 in the series on HIV-1; 2.65 in series [2]; 59.6 in [3]. Further, the figures for the IC90 (in the series with HIV-1 (72 hr); in series [2]; in series [3]) were more than 100000 nM, 20600 nM and 3770 nM, respectively. The pIC50 (as a rule, the IC50 on a negative log10 scale, so that one unit is a factor of ten) in the series on HIV-1 (setting [10]) was 5.49; in [2] (7-day incubation), 5.34; in [3] (7-day incubation) it was 6.70. For the same compound, the CC50 was more than 100000 nM in series [1] and 12000 nM in the series on fresh human PBMCs.
As to `CN1CC[C@]23c4c5ccc(O)c4O[C@H]2[C@@H](O)C=C[C@H]3[C@H]1C5` [morphine, reference compound], in [4], the “formalin-induced flinching, first phase” value was “reduced formalin-induced flinching” and the “formalin-induced flinching, second phase” value is given as “reduced formalin-induced flinching”.
On to `C#Cc1cccc(Nc2nc3cc(C(=O)[O-])ccc3c3cncnc23)c1.[Na+]` [Compound 1 Na], for which the “TI (TC50/IC50)” value in the series on HIV-1 came out at 87.3; in series [2] it was 3.07; in series [3], 35.8. The results for the IC90 (in the series with HIV-1 (72 hr); in series [2]; in [3]) were 9080 nM, 2770 nM and 1410 nM, respectively. Further, the pIC50 in the series on HIV-1 (setting [10]) is 6.70; in series [2] (7-day incubation), 5.94; in series [3] (7-day incubation), 7.00. The CC50 in [1] stood at 17100 nM; in the series with fresh human PBMCs, 3530 nM.
Take `O=c1c2ccccc2n2nnc3ccc(NCCCN4CCN(CCCNc5ccc6nnn7c8ccccc8c(=O)c5c67)CC4)c1c32` [Temacrazine, reference compound]: in the series on HIV-1 (setting [11]), the pIC50 is 8.45 and it took 17.9 nM to reach the 90% level (IC90). The “TI (TC50/IC50)” value in the series with HIV-1 was >28.1 and >27.4. In addition, in the series on HIV-1 (72 hr, positive control), the pIC50 was 8.44 and it took 16.9 nM to reach the 90% level (IC90). For the same compound, in series [5] (positive control), the CC50 at 72 h was more than 100 nM.
For the compound `O=C(O)c1ccc2c(c1)nc(Nc1cccc(C(F)(F)F)c1)c1nc(NC3CC3)ncc12` [Compound 2], in the series with fresh human PBMCs, the “cytotoxicity in PBMC's” value is “minimal cytotoxicity”.
On to `COc1ccc2cc([C@H](C)C(=O)O)ccc2c1` [naproxen, reference compound], for which the “effect on CFA-induced thermal hyperalgesia” value in [6] is given as “significantly reversed the CFA-induced thermal hyperalgesia”.
Turning to `C#Cc1cccc(Nc2nc3cc(C(=O)O)ccc3c3cncnc23)c1` [Compound 1, 5-(3-ethynylphenylamino)pyrimido[4,5-c]quinoline-8-carboxylic acid], in [7] (IV 5.4 mg/kg), the CLs turned out to be 5.28 mL/min/kg, the Cp0-exp is given as 29442.03 ng/mL and the Kel is 0.0678 h⁻¹. In [7] (PO 10.8 mg/kg), the “F(0-24 h)” value is 7.2%, the “F(0-Inf)” value was 11.0% and the Kel amounted to 0.0323 h⁻¹. For the same compound, the AUC(0-t) in series [7] (mouse, plasma, iv, 5.4 mg/kg, AUC(0-8 h), IV 5.4 mg/kg) is 11200 ng·h/mL. In addition, the AUC(0-t) in series [7] (mouse, plasma, iv, 5.4 mg/kg, IV 5.4 mg/kg, read-out: AUC(0-24 h)) was 15300 ng·h/mL. In addition, the AUC(0-t) in series [7] (mouse, plasma, po, 10.8 mg/kg, AUC(0-8 h), PO 10.8 mg/kg) turned out to be 1050 ng·h/mL. Moreover, the AUC(0-t) in series [7] (mouse, plasma, po, 10.8 mg/kg, PO 10.8 mg/kg, read-out: AUC(0-24 h)) amounted to 2210 ng·h/mL. For the same compound, in series [7] (mouse, plasma, IV 5.4 mg/kg), the AUC(0-inf) (in general, the area under the concentration-time curve extrapolated to infinity) stood at 17000 ng·h/mL; the Cmax – broadly, the highest concentration seen after dosing – stood at 21800 ng/mL; the half-life was 10.2 h. Further, the Vd in series [7] (mouse, plasma, IV 5.4 mg/kg, read-out: Vd) was found to be 4.67 L/kg. Moreover, in series [7] (mouse, plasma, PO 10.8 mg/kg), the AUC(0-inf) was determined as 3760 ng·h/mL, the Tmax (usually the time from dosing to the highest level) amounted to 0.25 h, the Cmax came to 800 ng/mL and the half-life is 21.5 h.
`O=C(O)c1ccc2c(c1)nc(Nc1cccc(Cl)c1)c1ccncc12` [Compound K Na]: the IC90 – broadly, the concentration needed for an effect of 90% – with HIV-1 (Human immunodeficiency virus 1, 72 h, 72 hr) came to 18000 nM; in series [2] (setting [13]) it was 8250 nM; in series [3] (setting [13]), 3050 nM. The pIC50 in the series with HIV-1 (Human immunodeficiency virus 1, 72 h, TNFα, reverse transcriptase after 72 hr) was 6.15; in series [2] (setting [12]) it was 5.46; in series [3] (setting [12]) it was 5.97. Besides, the “TI (TC50/IC50)” value in the series with HIV-1 worked out at 15.2; in series [2] it was 2.18; in [3], 7.13. Moreover, in series [5], the CC50 at 72 h is 10600 nM. Also, the CC50 at 7 days in series [8] was found to be 7610 nM.
Regarding `Cc1cn([C@H]2C[C@H](N=[N+]=[N-])[C@@H](CO)O2)c(=O)[nH]c1=O` [AZT, reference compound], the “TI (TC50/IC50)” value is reported as more than 665 in [2] and more than 611 in series [3]. Also, the figures for the pIC50 in series [2] (positive control) and in series [3] (positive control) were 8.82 and 8.79, respectively. The IC90 in series [2] (positive control) turned out to be 7.58 nM; in series [3] (positive control), 6.86 nM. In addition, in the series on fresh human PBMCs (positive control), the CC50 is more than 1000 nM. For the same compound, the “HIV-1 93TH073 Clade E replication” value in [9] is recorded as “inhibition of HIV-1 93TH073 Clade E replication”.
